In ChEMBL document CHEMBL3112450, “Synthesis and in vitro antitumor evaluation of primary amine substituted quinazoline linked benzimidazole” (Bioorg Med Chem Lett, 2014):

Experiments:
Format in all cases: functional
OVCAR-8 = test: Cytotoxicity against human OVCAR8 cells assessed as cell growth at 10^-5 M after 48 hrs by SRB assay; details: OVCAR-8, 48 h, read-out: Activity
HCC 2998 = test: Cytotoxicity against human HCC2998 cells assessed as cell growth at 10^-5 M after 48 hrs by SRB assay; details: HCC 2998, 48 h, read-out: Activity
SW-620 = test: Cytotoxicity against human SW620 cells assessed as cell growth at 10^-5 M after 48 hrs by SRB assay; details: SW-620, 48 h, read-out: Activity
A549 = test: Cytotoxicity against human A549 cells assessed as cell growth at 10^-5 M after 48 hrs by SRB assay; details: A549, 48 h, read-out: Activity
ACHN = test: Cytotoxicity against human ACHN cells assessed as cell growth at 10^-5 M after 48 hrs by SRB assay; details: read-out: Activity
NCI-H23 = test: Cytotoxicity against human NCI-H23 cells assessed as cell growth at 10^-5 M after 48 hrs by SRB assay; details: NCI-H23, 48 h, read-out: Activity
HL-60(TB) = test: Cytotoxicity against human HL-60(TB) cells assessed as cell growth at 10^-5 M after 48 hrs by SRB assay; details: HL-60, 48 h, read-out: Activity
Malme-3M = test: Cytotoxicity against human MALME-3M cells assessed as cell growth at 10^-5 M after 48 hrs by SRB assay; details: read-out: Activity
NCI-H460 = test: Cytotoxicity against human NCI-H460 cells assessed as cell growth at 10^-5 M after 48 hrs by SRB assay; details: NCI-H460, 48 h, read-out: Activity
MOLT-4 = test: Cytotoxicity against human MOLT4 cells assessed as cell growth at 10^-5 M after 48 hrs by SRB assay; details: MOLT-4, 48 h, read-out: Activity
U-251 = test: Cytotoxicity against human U251 cells assessed as cell growth at 10^-5 M after 48 hrs by SRB assay; details: U-251, 48 h, read-out: Activity
CAKI-1 = test: Cytotoxicity against human Caki1 cells assessed as cell growth at 10^-5 M after 48 hrs by SRB assay; details: CAKI-1, 48 h, read-out: Activity
TK-10 = test: Cytotoxicity against human TK10 cells assessed as cell growth at 10^-5 M after 48 hrs by SRB assay; details: TK-10, 48 h, read-out: Activity
K562 = test: Cytotoxicity against human K562 cells assessed as cell growth at 10^-5 M after 48 hrs by SRB assay; details: K562, 48 h, read-out: Activity
DU-145 = test: Cytotoxicity against human DU145 cells assessed as cell growth at 10^-5 M after 48 hrs by SRB assay; details: DU-145, 48 h, read-out: Activity
NCI-H322M = test: Cytotoxicity against human NCI-H322M cells assessed as cell growth at 10^-5 M after 48 hrs by SRB assay; details: read-out: Activity
SR = test: Cytotoxicity against human SR cells assessed as cell growth at 10^-5 M after 48 hrs by SRB assay; details: read-out: Activity
BT-549 = test: Cytotoxicity against human BT549 cells assessed as cell growth at 10^-5 M after 48 hrs by SRB assay; details: BT-549, 48 h, read-out: Activity
HOP-62 = test: Cytotoxicity against human HOP62 cells assessed as cell growth at 10^-5 M after 48 hrs by SRB assay; details: HOP-62, 48 h, read-out: Activity
CCRF-CEM = test: Cytotoxicity against human CCRF-CEM cells assessed as cell growth at 10^-5 M after 48 hrs by SRB assay; details: read-out: Activity
MDA-MB-468 = test: Cytotoxicity against human MDA-MB-468 cells assessed as cell growth at 10^-5 M after 48 hrs by SRB assay; details: MDA-MB-468, 48 h, read-out: Activity
UACC-62 = test: Cytotoxicity against human UACC62 cells assessed as cell growth at 10^-5 M after 48 hrs by SRB assay; details: UACC-62, 48 h, read-out: Activity
HCT-15 = test: Cytotoxicity against human HCT15 cells assessed as cell growth at 10^-5 M after 48 hrs by SRB assay; details: HCT-15, 48 h, read-out: Activity
HT-29 = test: Cytotoxicity against human HT-29 cells assessed as cell growth at 10^-5 M after 48 hrs by SRB assay; details: HT-29, 48 h, read-out: Activity
NCI-H226 = test: Cytotoxicity against human NCI-H226 cells assessed as cell growth at 10^-5 M after 48 hrs by SRB assay; details: NCI-H226, 48 h, read-out: Activity
NCI-H522 = test: Cytotoxicity against human NCI-H522 cells assessed as cell growth at 10^-5 M after 48 hrs by SRB assay; details: NCI-H522, 48 h, read-out: Activity
786-0 = test: Cytotoxicity against human 786-0 cells assessed as cell growth at 10^-5 M after 48 hrs by SRB assay; details: 786-0, 48 h, read-out: Activity
[1] = Cytotoxicity against human OVCAR5 cells assessed as cell growth at 10^-5 M after 48 hrs by SRB assay; details: OVCAR-5, 48 h, read-out: Activity
[2] = Cytotoxicity against human UO31 cells assessed as cell growth at 10^-5 M after 48 hrs by SRB assay; details: UO-31, 48 h, read-out: Activity
SK-MEL-2 = test: Cytotoxicity against human SK-MEL-2 cells assessed as cell growth at 10^-5 M after 48 hrs by SRB assay; details: SK-MEL-2, 48 h, read-out: Activity
RPMI-8226 = test: Cytotoxicity against human RPMI8226 cells assessed as cell growth at 10^-5 M after 48 hrs by SRB assay; details: RPMI-8226, 48 h, read-out: Activity
M14 = test: Cytotoxicity against human M14 cells assessed as cell growth at 10^-5 M after 48 hrs by SRB assay; details: M14, 48 h, read-out: Activity
SK-OV-3 = test: Cytotoxicity against human SKOV3 cells assessed as cell growth at 10^-5 M after 48 hrs by SRB assay; details: SK-OV-3, 48 h, read-out: Activity
SK-MEL-5 = test: Cytotoxicity against human SK-MEL-5 cells assessed as cell growth at 10^-5 M after 48 hrs by SRB assay; details: SK-MEL-5, 48 h, read-out: Activity
IGROV-1 = test: Cytotoxicity against human IGROV1 cells assessed as cell growth at 10^-5 M after 48 hrs by SRB assay; details: IGROV-1, 48 h, read-out: Activity
SNB-19 = test: Cytotoxicity against human SNB19 cells assessed as cell growth at 10^-5 M after 48 hrs by SRB assay; details: SNB-19, 48 h, read-out: Activity
SK-MEL-28 = test: Cytotoxicity against human SK-MEL-28 cells assessed as cell growth at 10^-5 M after 48 hrs by SRB assay; details: SK-MEL-28, 48 h, read-out: Activity

C=CCn1c(C)nc2ccc(Nc3nc(Nc4ncccn4)nc4ccccc34)cc21
growth at 10 µM (OVCAR-8): 94.3% | growth at 10 µM (HCC 2998): 106% | growth at 10 µM (SW-620): 100% | growth at 10 µM (A549): 90.3% | growth at 10 µM (ACHN): 103% | growth at 10 µM (NCI-H23): 82.8% | growth at 10 µM (HL-60(TB)): 94% | growth at 10 µM (Malme-3M): 99% | growth at 10 µM (NCI-H460): 97.8% | growth at 10 µM (MOLT-4): 97.2% | growth at 10 µM (U-251): 89.8% | growth at 10 µM (CAKI-1): 75.6% | growth at 10 µM (TK-10): 118% | growth at 10 µM (K562): 83% | growth at 10 µM (DU-145): 112% | growth at 10 µM (NCI-H322M): 100% | growth at 10 µM (SR): 121% | growth at 10 µM (BT-549): 82.8% | growth at 10 µM (HOP-62): 84.8% | growth at 10 µM (CCRF-CEM): 84.8% | growth at 10 µM (MDA-MB-468): 78.3% | growth at 10 µM (UACC-62): 92.6% | growth at 10 µM (HCT-15): 111% | growth at 10 µM (HT-29): 104% | growth at 10 µM (NCI-H226): 92.2% | growth at 10 µM (NCI-H522): 98.1% | growth at 10 µM (786-0): 106% | growth at 10 µM [1]: 114% | growth at 10 µM [2]: 82.1% | growth at 10 µM (SK-MEL-2): 100% | growth at 10 µM (RPMI-8226): 70.7% | growth at 10 µM (M14): 115% | growth at 10 µM (SK-OV-3): 104% | growth at 10 µM (SK-MEL-5): 92.9% | growth at 10 µM (IGROV-1): 84.1% | growth at 10 µM (SNB-19): 97.6% | growth at 10 µM (SK-MEL-28): 111%

C=CCn1c(C)nc2cc(Nc3nc(NCCO)nc4ccccc34)ccc21
growth at 10 µM (OVCAR-8): 73.6% | growth at 10 µM (HCC 2998): 89% | growth at 10 µM (SW-620): 68.2% | growth at 10 µM (A549): 92.3% | growth at 10 µM (ACHN): 90.5% | growth at 10 µM (NCI-H23): 81.9% | growth at 10 µM (HL-60(TB)): 93.8% | growth at 10 µM (Malme-3M): 98.6% | growth at 10 µM (NCI-H460): 96% | growth at 10 µM (MOLT-4): 56.7% | growth at 10 µM (U-251): 90.9% | growth at 10 µM (CAKI-1): 93% | growth at 10 µM (TK-10): 118% | growth at 10 µM (K562): 64.1% | growth at 10 µM (DU-145): 98.8% | growth at 10 µM (NCI-H322M): 91.3% | growth at 10 µM (SR): 68.8% | growth at 10 µM (BT-549): 92.5% | growth at 10 µM (HOP-62): 83.3% | growth at 10 µM (CCRF-CEM): 81.9% | growth at 10 µM (MDA-MB-468): 53.5% | growth at 10 µM (UACC-62): 85.5% | growth at 10 µM (HCT-15): 105% | growth at 10 µM (HT-29): 64.5% | growth at 10 µM (NCI-H226): 78.8% | growth at 10 µM (NCI-H522): 88.1% | growth at 10 µM (786-0): 89.1% | growth at 10 µM [1]: 92.2% | growth at 10 µM [2]: 72.4% | growth at 10 µM (SK-MEL-2): 102% | growth at 10 µM (RPMI-8226): 63.4% | growth at 10 µM (M14): 93.3% | growth at 10 µM (SK-OV-3): 103% | growth at 10 µM (SK-MEL-5): 75.4% | growth at 10 µM (IGROV-1): 95.3% | growth at 10 µM (SNB-19): 90.2% | growth at 10 µM (SK-MEL-28): 101%

C=CCn1c(C)nc2ccc(Nc3nc(Sc4ccc(N)cc4)nc4ccccc34)cc21
growth at 10 µM (OVCAR-8): 63.7% | growth at 10 µM (HCC 2998): 103% | growth at 10 µM (SW-620): 108% | growth at 10 µM (A549): 89.8% | growth at 10 µM (ACHN): 101% | growth at 10 µM (NCI-H23): 101% | growth at 10 µM (HL-60(TB)): 98.8% | growth at 10 µM (Malme-3M): 123% | growth at 10 µM (NCI-H460): 104% | growth at 10 µM (MOLT-4): 88.2% | growth at 10 µM (U-251): 91.3% | growth at 10 µM (CAKI-1): 90.5% | growth at 10 µM (TK-10): 107% | growth at 10 µM (K562): 92.5% | growth at 10 µM (DU-145): 114% | growth at 10 µM (NCI-H322M): 102% | growth at 10 µM (SR): 90.8% | growth at 10 µM (BT-549): 87.9% | growth at 10 µM (HOP-62): 104% | growth at 10 µM (CCRF-CEM): 65.5% | growth at 10 µM (MDA-MB-468): 106% | growth at 10 µM (UACC-62): 83.1% | growth at 10 µM (HCT-15): 96.5% | growth at 10 µM (HT-29): 97.3% | growth at 10 µM (NCI-H226): 109% | growth at 10 µM (NCI-H522): 89.5% | growth at 10 µM (786-0): 102% | growth at 10 µM [1]: 118% | growth at 10 µM [2]: 89.5% | growth at 10 µM (SK-MEL-2): 109% | growth at 10 µM (RPMI-8226): 59.8% | growth at 10 µM (M14): 109% | growth at 10 µM (SK-OV-3): 124% | growth at 10 µM (SK-MEL-5): 84.1% | growth at 10 µM (IGROV-1): 102% | growth at 10 µM (SNB-19): 93.2% | growth at 10 µM (SK-MEL-28): 104%
